Experimental data reported in ChEMBL document CHEMBL1201862, “PubChem BioAssay data set” (2004).
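1) Cells in 96-well plates. 2) Compound, 48 h, 5 concentrations. 3) Linear interpolation between surrounding doses. 4) Unreached endpoint = highest concentration. GI50 marks 50% less growth.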 The source made the active and inactive calls. Rule as the data show it: active = GI50 up to about 1.1 µM and inactive = higher.

Legend:
Assay in all cases: NCI anticancer screen, dose series, 48 h
OVCAR-5 = system: OVCAR-5
IGROV-1 = system: IGROV-1
SN12C = system: SN12C
SW-620 = system: SW-620
COLO 205 = system: COLO 205
NCI-H23 = system: NCI-H23
M14 = system: M14
HCC 2998 = system: HCC 2998
MOLT-4 = system: MOLT-4
CAKI-1 = system: CAKI-1
OVCAR-4 = system: OVCAR-4
RPMI-8226 = system: RPMI-8226
HOP-92 = system: HOP-92
LOX IMVI = system: LOX IMVI
SR = system: SR
HT-29 = system: HT-29
SK-MEL-5 = system: SK-MEL-5
HOP-62 = system: HOP-62

Measured: GI50

COc1nc(N)c(NC(C)=O)c(=O)n1C
inactive: OVCAR-5 > 100 µM | IGROV-1 > 100 µM | SN12C > 100 µM | SW-620 > 100 µM | COLO 205 > 100 µM | NCI-H23 > 100 µM | M14 > 100 µM | HCC 2998 > 100 µM | MOLT-4 > 100 µM | CAKI-1 > 100 µM | OVCAR-4 > 100 µM | RPMI-8226 > 100 µM | HOP-92 39.9 µM | LOX IMVI > 100 µM | SR > 100 µM | HT-29 > 100 µM

COc1ccc(S(=O)(=O)c2ccccc2[N+](=O)[O-])cc1
inactive: OVCAR-5 > 100 µM | IGROV-1 > 100 µM | SN12C 86.1 µM | SW-620 > 100 µM | SK-MEL-5 65 µM | COLO 205 > 100 µM | NCI-H23 98.9 µM | M14 > 100 µM | HCC 2998 > 100 µM | MOLT-4 92.3 µM | OVCAR-4 > 100 µM | RPMI-8226 > 100 µM | HOP-62 > 100 µM | HOP-92 > 100 µM | LOX IMVI 91.4 µM | SR > 100 µM | HT-29 > 100 µM

Cc1ccc(Oc2ccc(C)cc2[N+](=O)[O-])cc1
inactive: OVCAR-5 38.2 µM | IGROV-1 > 100 µM | SN12C > 100 µM | SW-620 > 100 µM | SK-MEL-5 29.8 µM | COLO 205 > 100 µM | NCI-H23 31.5 µM | M14 96.6 µM | HCC 2998 > 100 µM | MOLT-4 37.4 µM | OVCAR-4 6.12 µM | RPMI-8226 57.8 µM | HOP-62 > 100 µM | HOP-92 28.6 µM | LOX IMVI 40.1 µM | SR 33.7 µM | HT-29 40.7 µM

CCOC(=O)/C(C#N)=C(N)/C(=N\Nc1cccc(C(F)(F)F)c1)C(=O)OCC
inactive: OVCAR-5 > 100 µM | IGROV-1 > 100 µM | SN12C > 100 µM | SW-620 > 100 µM | SK-MEL-5 > 100 µM | COLO 205 > 100 µM | NCI-H23 > 100 µM | M14 > 100 µM | HCC 2998 > 100 µM | MOLT-4 > 100 µM | CAKI-1 > 100 µM | OVCAR-4 > 100 µM | RPMI-8226 > 100 µM | HOP-62 > 100 µM | HOP-92 > 100 µM | LOX IMVI > 100 µM | SR > 100 µM | HT-29 > 100 µM

CC(=O)Nc1ccc(-c2nnc(SCC(=O)Nc3ccccc3)o2)cc1
inactive: OVCAR-5 > 100 µM | IGROV-1 47.6 µM | SN12C 90.4 µM | SW-620 > 100 µM | SK-MEL-5 69 µM | COLO 205 > 100 µM | NCI-H23 39.5 µM | M14 86.3 µM | MOLT-4 > 100 µM | CAKI-1 > 100 µM | OVCAR-4 > 100 µM | RPMI-8226 81.7 µM | HOP-62 > 100 µM | HOP-92 > 100 µM | LOX IMVI 33.5 µM | SR > 100 µM | HT-29 60.5 µM

CC1(C)OC(C(N)=O)=C(C(N)=O)O1
inactive: OVCAR-5 > 100 µM | IGROV-1 > 100 µM | SN12C > 100 µM | SW-620 > 100 µM | COLO 205 > 100 µM | NCI-H23 > 100 µM | M14 > 100 µM | HCC 2998 > 100 µM | MOLT-4 > 100 µM | CAKI-1 > 100 µM | OVCAR-4 > 100 µM | HOP-62 > 100 µM | HOP-92 > 100 µM | LOX IMVI > 100 µM | SR 6.53 µM | HT-29 > 100 µM

COc1ccc(-c2cc(N3CCN(c4ccc(Cl)cc4)CC3)c(C#N)c(=O)o2)cc1
inactive: OVCAR-5 > 100 µM | IGROV-1 10.9 µM | SN12C 15.1 µM | SW-620 40 µM | SK-MEL-5 11.9 µM | COLO 205 > 100 µM | NCI-H23 21.8 µM | M14 35.1 µM | HCC 2998 91.8 µM | CAKI-1 8.71 µM | OVCAR-4 2.45 µM | RPMI-8226 12.8 µM | HOP-92 > 100 µM | LOX IMVI 10.4 µM | SR > 100 µM | HT-29 > 100 µM

c1c(N2CCOCC2)s[s+]c1N1CCOCC1
inactive: OVCAR-5 > 100 µM | IGROV-1 > 100 µM | SN12C > 100 µM | SW-620 > 100 µM | SK-MEL-5 > 100 µM | NCI-H23 > 100 µM | M14 > 100 µM | HCC 2998 > 100 µM | MOLT-4 > 100 µM | CAKI-1 > 100 µM | OVCAR-4 > 100 µM | RPMI-8226 > 100 µM | HOP-62 > 100 µM | HOP-92 > 100 µM | LOX IMVI > 100 µM | SR > 100 µM | HT-29 > 100 µM

COc1ccc(C(=O)C(C(=O)C(=O)NCCCNC(=O)C(=O)C(C(=O)c2ccc(OC)cc2)c2ccc(OC)cc2)c2ccc(OC)cc2)cc1 (stereo unspecified)
inactive: OVCAR-5 > 100 µM | IGROV-1 > 100 µM | SW-620 > 100 µM | COLO 205 > 100 µM | NCI-H23 > 100 µM | M14 > 100 µM | HCC 2998 > 100 µM | MOLT-4 > 100 µM | OVCAR-4 > 100 µM | RPMI-8226 > 100 µM | HOP-62 > 100 µM | HOP-92 > 100 µM | LOX IMVI > 100 µM | SR > 100 µM | HT-29 > 100 µM

[O-]c1on[n+]2c1c(Nc1ccc(Cl)cc1)nc1ccccc12
inactive: OVCAR-5 > 100 µM | IGROV-1 > 100 µM | SN12C > 100 µM | SW-620 > 100 µM | SK-MEL-5 > 100 µM | COLO 205 > 100 µM | NCI-H23 > 100 µM | M14 > 100 µM | HCC 2998 > 100 µM | MOLT-4 > 100 µM | OVCAR-4 > 100 µM | RPMI-8226 > 100 µM | HOP-92 > 100 µM | LOX IMVI > 100 µM | SR > 100 µM | HT-29 > 100 µM

CCOC(=O)C1S/C(=N\c2ccc(C)c(C)c2)N=C1C (stereo unspecified)
inactive: OVCAR-5 > 100 µM | IGROV-1 > 100 µM | SN12C > 100 µM | SW-620 > 100 µM | SK-MEL-5 52.7 µM | COLO 205 > 100 µM | NCI-H23 > 100 µM | M14 > 100 µM | HCC 2998 > 100 µM | MOLT-4 > 100 µM | CAKI-1 > 100 µM | OVCAR-4 > 100 µM | RPMI-8226 85.7 µM | HOP-62 > 100 µM | HOP-92 > 100 µM | LOX IMVI 75.2 µM | SR > 100 µM | HT-29 > 100 µM

COC(=O)[C@]1(C)CCCC2(C)C1CC[C@H]1C=C(C)[C@H]3CCC12C3 (stereo partly specified)
inactive: OVCAR-5 > 100 µM | IGROV-1 > 100 µM | SN12C > 100 µM | SW-620 > 100 µM | SK-MEL-5 98.2 µM | COLO 205 > 100 µM | NCI-H23 > 100 µM | M14 > 100 µM | HCC 2998 > 100 µM | MOLT-4 > 100 µM | CAKI-1 > 100 µM | OVCAR-4 > 100 µM | RPMI-8226 > 100 µM | HOP-62 > 100 µM | HOP-92 > 100 µM | LOX IMVI 68.2 µM | SR > 100 µM | HT-29 49.9 µM
